Structures are written as SMILES.

This assay concerns the target T1, recombinant human GR (Homo sapiens, UniProt P04150).
T1 construct: purchased Panvera/Invitrogen P2812 (kit P2893)
T1 sequence (P04150 1-777): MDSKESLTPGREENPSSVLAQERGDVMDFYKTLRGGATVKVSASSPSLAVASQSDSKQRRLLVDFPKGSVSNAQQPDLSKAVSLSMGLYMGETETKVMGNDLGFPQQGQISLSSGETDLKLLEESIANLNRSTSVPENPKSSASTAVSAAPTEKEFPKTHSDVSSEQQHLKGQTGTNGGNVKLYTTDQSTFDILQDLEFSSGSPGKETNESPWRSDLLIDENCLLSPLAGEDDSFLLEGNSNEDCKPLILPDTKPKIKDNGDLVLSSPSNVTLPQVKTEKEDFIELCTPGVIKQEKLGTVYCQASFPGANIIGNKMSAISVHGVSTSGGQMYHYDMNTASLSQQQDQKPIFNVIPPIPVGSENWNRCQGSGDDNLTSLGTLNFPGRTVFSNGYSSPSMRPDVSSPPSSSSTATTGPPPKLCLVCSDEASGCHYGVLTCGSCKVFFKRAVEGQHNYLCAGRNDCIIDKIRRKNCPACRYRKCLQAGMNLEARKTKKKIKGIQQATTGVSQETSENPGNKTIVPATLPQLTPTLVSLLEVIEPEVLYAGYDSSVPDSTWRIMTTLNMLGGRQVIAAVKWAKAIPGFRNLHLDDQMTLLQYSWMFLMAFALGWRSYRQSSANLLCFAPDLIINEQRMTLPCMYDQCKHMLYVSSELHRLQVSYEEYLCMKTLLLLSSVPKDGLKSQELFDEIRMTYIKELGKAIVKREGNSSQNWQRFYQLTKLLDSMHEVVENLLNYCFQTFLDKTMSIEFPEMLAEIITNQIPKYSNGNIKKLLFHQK
In words: Human Glucocorticoid Receptor (GR) Assay (fluorescence polarization, Panvera/Invitrogen kit). The settings on record: GS Red tracer, 2 hours at room temperature, 100% control 10 μM Dexamethasone, read-out: Inhibition of GR binding, IC50. The method, then: Human Glucocorticoid Receptor (GR) Assay The assay is based on a commercial kit from Panvera/Invitrogen (Part number P2893). The assay technology is fluorescence polarization. The kit utilises recombinant human GR (Panvera, Part number P2812), a Fluoromone™ labelled tracer (GS Red, Panvera, Part number P2894) and a Stabilizing Peptide 10× (Panvera, Part number P2815). The GR and Stabilizing Peptide reagents are stored at −70° C. while the GS Red is stored at −20° C. Also included in the kit are 1M DTT (Panvera, Part number P2325, stored at −20° C.) and GR Screening buffer 10× (Panvera, Part number P2814, stored at −70° C. initially but once thawed stored at room temperature). Avoid repeated freeze/thaws for all reagents. The GR Screening buffer 10× comprises 100 mM potassium phosphate, 200 mM sodium molybdate, 1 mM EDTA and 20% DMSO. Test compounds (1 μL) and controls (1 μL) in 100% DMSO were added to black polystyrene 384-well plates (Greiner low volume black flat-bottom, part number 784076). 0% control was 100% DMSO and 100% control was 10 μM Dexamethasone. Background solution (8 μL; assay buffer 10×, Stabilizing Peptide, DTT and ice cold MQ water) was added to the background wells. GS Red solution (7 μL; assay buffer 10×, Stabilizing Peptide, DTT, GS Red and ice cold water) was added to all wells except background wells. GR solution (7 μL; assay buffer 10×, Stabilizing Peptide, DTT, GR and ice cold water) was added to all wells. The plate was sealed and incubated in a dark at room temperature for 2 hours. The plate was read in an Analyst plate reader (LJL Biosystems/Molecular Devices Corporation) or other similar plate reader capable of recording fluorescence polarization (excitation wavelength 530 nm, emission wavelength 590 nm and a dichroic mirror at 561 nm).
A general note: Fluorescence polarisation rises when a labelled molecule tumbles more slowly, as on binding a larger partner.
As usually defined, the IC50 is the concentration needed to halve the response being measured. With `C[C@]12C=CC(=O)C=C1[C@@H](F)C[C@H]1[C@@H]3C[C@H]4OC(c5ccco5)O[C@@]4(C(=O)SCC#CCO)[C@@]3(C)C[C@H](O)[C@@]12F` (stereo partly shown) [Example 2], the IC50 worked out at 1.2 nM.
Next, `C[C@]12C=CC(=O)C=C1[C@@H](F)C[C@H]1[C@@H]3C[C@H]4OC(c5ccc(Cl)cc5)O[C@@]4(C(=O)SCC#N)[C@@]3(C)C[C@H](O)[C@@]12F` (stereo partly drawn) [Example 28, S-(Cyanomethyl)(4aS,4bR,5S,6aS,6bS,9aR,10aS,10bS,12S)-8-(4-chlorophenyl)-4b,12-difluoro-5-hydroxy-4a,6a-dimethyl-2-oxo-2,4a,4b,5,6,6a,9a,10,10a,10b,11,12-dodecahydro-6bH-naphtho[2′,1′,4,5]indeno[1,2-d][1,3]dioxole-6b-carbothioate]: 1.3 nM.
`Cc1ccccc1C1O[C@@H]2C[C@H]3[C@@H]4C[C@H](F)C5=CC(=O)C=C[C@]5(C)[C@@]4(F)[C@@H](O)C[C@]3(C)[C@]2(C(=O)SCF)O1` (stereo partly drawn) [Example 22, S-(Fluoromethyl)(4aS,4bR,5S,6aS,6bS,9aR,10aS,10bS,12S)-4b,12-difluoro-5-hydroxy-4a,6a-dimethyl-8-(2-methylphenyl)-2-oxo-2,4a,4b,5,6,6a,9a,10,10a,10b,11,12-dodecahydro-6bH-naphtho[2′,1′:4,5]indeno[1,2-d][1,3]dioxole-6b-carbothioate]: the IC50 stood at 0.85 nM.
On to `C[C@]12C=CC(=O)C=C1[C@@H](F)C[C@H]1[C@@H]3C[C@H]4OC(c5ccco5)O[C@@]4(C(=O)SCC#N)[C@@]3(C)C[C@H](O)[C@@]12F` (stereo partly shown) [Example 1], for which the IC50 turned out to be 1.2 nM.
To `C[C@]12C=CC(=O)C=C1[C@@H](F)C[C@H]1[C@@H]3C[C@H]4OC(c5cccs5)O[C@@]4(C(=O)SCF)[C@@]3(C)C[C@H](O)[C@@]12F` (stereo partly drawn) [Example 15, S-(Fluoromethyl)(4aS,4bR,5S,6aS,6bS,9aR,10aS,10bS,12S)-4b,12-difluoro-5-hydroxy-4a,6a-dimethyl-2-oxo-8-(2-thienyl)-2,4a,4b,5,6,6a,9a,10,10a,10b,11,12-dodecahydro-6bH-naphtho[2′,1′:4,5]indeno[1,2-d][1,3]dioxole-6b-carbothioate] belongs 1 nM.
Turning to `Cc1noc(C)c1C1O[C@@H]2C[C@H]3[C@@H]4C[C@H](F)C5=CC(=O)C=C[C@]5(C)[C@@]4(F)[C@@H](O)C[C@]3(C)[C@]2(C(=O)SCF)O1` (stereo partly drawn) [Example 33, S-(Fluoromethyl)(4aS,4bR,5S,6aS,6bS,9aR,10aS,10bS,12S)-8-(3,5-dimethylisoxazol-4-yl)-4b,12-difluoro-5-hydroxy-4a,6a-dimethyl-2-oxo-2,4a,4b,5,6,6a,9a,10,10a,10b,11,12-dodecahydro-6bH-naphtho[2′,1′:4,5]indeno[1,2-d][1,3]dioxole-6b-carbothioate], the IC50 turned out to be 1 nM.
For `C[C@]12C=CC(=O)C=C1[C@@H](F)C[C@H]1[C@@H]3C[C@H]4OC(c5ccc6ncccc6c5)O[C@@]4(C(=O)SCC#N)[C@@]3(C)C[C@H](O)[C@@]12F` (stereo partly drawn) [Example 16, S-(Cyanomethyl)(4aS,4bR,5S,6aS,6bS,9aR,10aS,10bS,12S)-4b,12-difluoro-5-hydroxy-4a,6a-dimethyl-2-oxo-8-quinolin-6-yl-2,4a,4b,5,6,6a,9a,10,10a,10b,11,12-dodecahydro-6bH-naphtho[2′,1′:4,5]indeno[1,2-d][1,3]dioxole-6b-carbothioate], the IC50 came out at 1.5 nM.
To `COc1ccc([C@H]2O[C@@H]3C[C@H]4[C@@H]5CCC6=CC(=O)C=C[C@]6(C)[C@H]5[C@@H](O)C[C@]4(C)[C@]3(C(=O)SC)O2)c(F)c1` (single isomer, unassigned) [Example 38 (8S)] belongs 0.88 nM; to `CSC(=O)[C@@]12OC(c3ccc(C)o3)O[C@@H]1C[C@H]1[C@@H]3C[C@H](F)C4=CC(=O)C=C[C@]4(C)[C@@]3(F)[C@@H](O)C[C@@]12C` (stereo partly drawn) [Example 8, S-Methyl (4aS,4bR,5S,6aS,6bS,9aR,10aS,10bS,12S)-4b,12-difluoro-5-hydroxy-4a,6a-dimethyl-8-(5-methyl-2-furyl)-2-oxo-2,4a,4b,5,6,6a,9a,10,10a,10b,11,12-dodecahydro-6bH-naphtho[2′,1′:4,5]indeno[1,2-d][1,3]dioxole-6b-carbothioate], 1.9 nM; to `CSC(=O)[C@@]12O[C@@H](c3cccs3)O[C@@H]1C[C@H]1[C@@H]3C[C@H](F)C4=CC(=O)C=C[C@]4(C)[C@@]3(F)[C@@H](O)C[C@@]12C` [Example 4, S-Methyl (4aS,4bR,5S,6aS,6bS,8S,9aR,10aS,10bS,12S)-4b,12-difluoro-5-hydroxy-4a,6a-dimethyl-2-oxo-8-(2-thienyl)-2,4a,4b,5,6,6a,9a,10,10a,10,11,12-dodecahydro-6bH-naphtho[2′,1′:4,5]indeno[1,2-d][1,3]dioxole-6b-carbothioate], 0.96 nM.
Next, `C[C@]12C=CC(=O)C=C1[C@@H](F)C[C@H]1[C@@H]3C[C@H]4OC(c5ccc(F)cc5)O[C@@]4(C(=O)SCC#N)[C@@]3(C)C[C@H](O)[C@@]12F` (stereo partly drawn) [Example 26, S-(Cyanomethyl)(4aS,4bR,5S,6aS,6bS,9aR,10aS,10bS,12S)-4b,12-difluoro-8-(4-fluorophenyl)-5-hydroxy-4a,6a-dimethyl-2-oxo-2,4a,4b,5,6,6a,9a,10,10a,10b,11,12-dodecahydro-6bH-naphtho[2′,1′:4,5]indeno[1,2-d][1,3]dioxole-6b-carbothioate]: 1.1 nM; `C[C@]12C=CC(=O)C=C1[C@@H](F)C[C@H]1[C@@H]3C[C@H]4OC(c5ccco5)O[C@@]4(C(=O)SCF)[C@@]3(C)C[C@H](O)[C@@]12F` (stereo partly shown) [Example 3]: 0.92 nM.
Next, `Cc1ccsc1C1O[C@@H]2C[C@H]3[C@@H]4C[C@H](F)C5=CC(=O)C=C[C@]5(C)[C@@]4(F)[C@@H](O)C[C@]3(C)[C@]2(C(=O)SCF)O1` (stereo partly drawn) [Example 13, S-(Fluoromethyl)(4aS,4bR,5S,6aS,6bS,9aR,10aS,10bS,12S)-4b,12-difluoro-5-hydroxy-4a,6a-dimethyl-8-(3-methyl-2-thienyl)-2-oxo-2,4a,4b,5,6,6a,9a,10,10a,10b,11,12-dodecahydro-6bH-naphtho[2′,1′:4,5]indeno[1,2-d][1,3]dioxole-6b-carbothioate]: 0.55 nM; `C[C@]12C=CC(=O)C=C1CC[C@@H]1[C@@H]2[C@@H](O)C[C@@]2(C)[C@H]1C[C@H]1OC(c3ccco3)O[C@]12C(=O)SCF` (stereo partly drawn) [Example 34, S-(Fluoromethyl)(4aR,4bS,5S,6aS,6bS,9aR,10aS,10bS)-8-furan-2-yl-5-hydroxy-4a,6a-dimethyl-2-oxo-2,4a,4b,5,6,6a,9a,10,10a,10b,11,12-dodecahydro-6bH-naphtho[2′,1′:4,5]indeno[1,2-d][1,3]dioxole-6b-carbothioate]: 1 nM; `CSC(=O)[C@@]12OC(c3ccccc3F)O[C@@H]1C[C@H]1[C@@H]3CCC4=CC(=O)C=C[C@]4(C)[C@H]3[C@@H](O)C[C@@]12C` (stereo partly drawn) [Example 44, S-Methyl (4aR,4bS,5S,6aS,6bS,9aR,10aS,10bS)-8-(2-fluorophenyl)-5-hydroxy-4a,6a-dimethyl-2-oxo-2,4a,4b,5,6,6a,9a,10,10a,10b,11,12-dodecahydro-6bH-naphtho[2′,1′:4,5]indeno[1,2-d][1,3]dioxole-6b-carbothioate]: 0.62 nM.
With `Cc1ccc(C2O[C@@H]3C[C@H]4[C@@H]5C[C@H](F)C6=CC(=O)C=C[C@]6(C)[C@@]5(F)[C@@H](O)C[C@]4(C)[C@]3(C(=O)SCF)O2)cc1` (stereo partly drawn) [Example 17, S-(Fluoromethyl)(4aS,4bR,5S,6aS,6bS,9aR,10aS,10bS,12S)-4b,12-difluoro-5-hydroxy-4a,6a-dimethyl-8-(4-methylphenyl)-2-oxo-2,4a,4b,5,6,6a,9a,10,10a,10b,11,12-dodecahydro-6bH-naphtho[2′,1′:4,5]indeno[1,2-d][1,3]dioxole-6b-carbothioate], the IC50 was 1.8 nM.

The values are drawn from patent US20110294766A1, “16 Alpha, 17 Alpha-Acetal Glucocorticosteroidal Derivatives and their Use” (AstraZeneca AB, priority 2008, published 2011).
